Source: EPA's ToxValDB 9.5 (doi:10.2903/j.efsa.2007.105r)
Values after ≈ are worked out from the molar mass of the structure shown.

How the values were obtained:
[1] = system: Aphidius rhopalosiphi; test: LR50; higher = less toxic; settings: acute; duration: 48 hours; mortality
[2] = system: Rattus norvegicus
[3] = system: Daphnia magna; settings: chronic/long-term; duration: 21 days; reproduction
[4] = system: Tagia sp.
[5] = system: Mus musculus
[6] = system: Colinus virginianus; settings: acute, mortality
[7] = system: Apis mellifera; settings: acute; duration: 48 hours; dermal; mortality
[8] = system: Anas platyrhynchos; settings: reproductive
[9] = system: Oncorhynchus mykiss
[10] = system: Bibionidae; settings: chronic/long-term; duration: 28 days

Cc1cc(C)c(C2=C(OC(=O)CC(C)(C)C)C3(CCCC3)OC2=O)c(C)c1 [Spiromesifen] was tested, and the LR50 [1] was 40.6 mL/ha, the NOAEL ([2]; acute) was 200 mg/kg-day and the LD50 ([2]; acute, oral, mortality) was > 2500 mg/kg. For the same compound, the NOEC ([2]; chronic) was 30 mg/kg-day, the NOEC [3] was 0.00025 mg/L and the LC50 ([4]; acute, duration: 14 days, mortality) was > 1000 mg/kg. For the same compound, the NOEC ([4]; chronic/long-term, duration: 56 days, reproduction) was 4.32 mg/kg, the NOAEL ([5]; chronic, duration: 18 months) was 3 mg/kg-day and the NOAEL ([5]; subchronic, duration: 90 days, oral, clinical chemistry) was 3 mg/kg-day. The LC50 [6] was > 5000 mg/kg, the LD50 [6] was > 1160 mg/kg and the LD50 ([6]; oral, diet) was > 2000 mg/kg. For the same compound, the LD50 [7] was > 200 µg/piece, the NOEC [8] was 229 mg/kg and the LC50 ([8]; mortality) was > 5000 mg/kg. It also gave an LC50 ([9]; acute, duration: 96 hours, mortality) of 0.016 mg/L (≈ 0.0432 µM), an NOEC ([9]; chronic/long-term, duration: 97 days, time to swim up) of 0.00473 mg/L and an NOEC [10] of 0.032 mg/L.
